Assay results as given in US8329425B2, “Method and system for detection of chloramphenicol” (priority 2011, dated 2012).

Columns and labels:
[1] = target: T1, CAT I V28W mutant (Escherichia coli, UniProt P62577, C126A/C196A/C212A/C31A/C91A/V28W); conditions: chloramphenicol 10 μM; CAT I V28W and fluorescein-linked chloramphenicol fixed at 0.15 μM; excitation 494 nm
Experimental: Fluorescence measurements were performed on a Perkin Elmer LS 50B spectrofluorometer with the excitation wavelength set at 494 nm and the excitation and emission slit width set at 5 nm.

[2] = target: T1, CAT I V28W mutant; test: Fluorescence response of fluorescein-linked chloramphenicol to CAT I V28W mutant; assay type: binding, E. coli; set-up: His6 (N); made in house; host or cells: E. coli BL21 (DE3); conditions: 0.15 μM fluorescein-linked chloramphenicol, 1.5 μM CAT I V28W (FIG. 6); excitation 494 nm, slit width 5 nm
Excerpt: The excitation wavelength is 494 nm and the slit width is 5 nm.

Structure (SMILES) | increase in fluorescence [1] [%] | fluorescence of fluorescein-linked chloramphenicol in the presence of CAT I V28W mutant [2]
O=C(N[C@H](CO)[C@H](O)c1ccc([N+](=O)[O-])cc1)C(Cl)Cl [chloramphenicol] | ~10 | –
O=C(CCCCCNC(=S)Nc1ccc(-c2c3ccc(=O)cc-3oc3cc(O)ccc23)c(C(=O)O)c1)N[C@H](CO)[C@H](O)c1ccc([N+](=O)[O-])cc1 [fluorescein-linked chloramphenicol, 5-(3-(6-(((1R,2R)-1,3-dihydroxy-1-(4-nitrophenyl)propan-2-yl)amino)-6-oxohexyl)thioureido)-2-(6-hydroxy-3-oxo-3H-xanthen-9-yl)benzoic acid] | – | significantly reduced
